Measurements: patent US9868746B2, “Substituted 5-aminothieno[2,3-C]pyridazine-6-carboxamide analogs as positive allosteric modulators of the muscarinic acetylcholine receptor M4” (Vanderbilt University, priority 2012, dated 2018)

Target: T1, mAChR M4 (Homo sapiens, UniProt P08173)
T1 construct: expressed in transfected cells; host or cells: CHO-K1 cells stably transfected with M4 cDNA and chimeric G-protein Gqi5
T1 sequence (P08173 1-479): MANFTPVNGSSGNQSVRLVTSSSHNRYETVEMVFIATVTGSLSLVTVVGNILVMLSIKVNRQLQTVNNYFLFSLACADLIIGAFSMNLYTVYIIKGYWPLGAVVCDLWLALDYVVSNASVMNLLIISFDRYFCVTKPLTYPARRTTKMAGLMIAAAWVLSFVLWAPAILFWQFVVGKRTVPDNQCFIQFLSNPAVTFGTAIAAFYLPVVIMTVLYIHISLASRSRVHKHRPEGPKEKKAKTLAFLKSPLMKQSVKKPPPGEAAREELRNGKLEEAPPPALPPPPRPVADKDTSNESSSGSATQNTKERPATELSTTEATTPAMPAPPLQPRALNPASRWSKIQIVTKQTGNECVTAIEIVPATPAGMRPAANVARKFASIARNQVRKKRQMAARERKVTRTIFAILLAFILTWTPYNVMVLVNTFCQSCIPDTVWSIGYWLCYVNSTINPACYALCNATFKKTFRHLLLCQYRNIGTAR
Experiment: mAChR M4 cell-based functional assay (calcium mobilization, potentiation of EC20 acetylcholine response)
Details: for Emax at 30 µM: % ACh maximum at 30 μM; for EC50: mAChR M4 cell-based functional assay, >10,000 estimated for low potency compounds without plateau, read-out: EC50

SMILES | Emax at 30 µM [%] | EC50 [nM]
Cc1nnc2sc(C(=O)NCc3ccc(OC(F)F)nc3)c(N)c2c1C [Example B412] | 85 | 67
Cc1nnc2sc(C(=O)NCc3ccc(S(=O)(=O)C(F)(F)F)cc3)c(N)c2c1C [Example B66] | 62 | 
Cc1nnc2sc(C(=O)NCc3ccc(F)c(S(C)(=O)=O)c3)c(N)c2c1C [Example B78] | 63 | 230
Cc1ccc(S(=O)(=O)NC2CN(C(=O)c3sc4nnc(C)c(C)c4c3N)C2)cc1 [Example B183] | 47 | 490
COc1ccc(CNC(=O)c2sc3nnc(C)c(C)c3c2N)cc1Cl [Example B446] | 59 | 17
COc1ccc(C2CCN(C(=O)c3sc4nnc(C)c(C)c4c3N)C2)cc1 (stereo not drawn) [Example B164] | 39 | 280
Cc1nnc2sc(C(=O)N3CC4CN(C(=O)C(C)(C)C)CC4C3)c(N)c2c1C (stereo not drawn) [Example B333] | 53 | > 10000
Cc1nnc2sc(C(=O)NCCc3ccncc3)c(N)c2c1C [Example B93] | 49 | 2300
COc1ccc(CNC(=O)c2sc3nnccc3c2N)cc1 [Example B2] | 61 | > 10000
Cc1nnc2sc(C(=O)N3CC(N=[N+]=[N-])(c4ccccc4)C3)c(N)c2c1C [Example B311] | 43 | 180
Cc1nnc2sc(C(=O)NCc3ccc(OC(F)(F)F)cc3)c(N)c2c1C [Example B181] | 68 | 30
Cc1nnc2sc(C(=O)NC3CN(C(=O)Oc4ccc(Cl)cc4)C3)c(N)c2c1C [Example B355] | 58 | 16
Cc1nnc2sc(C(=O)NC3CNC3)c(N)c2c1C [Example B81] | 34 | > 10000
COCc1ccc(CNC(=O)c2sc3nnc(C)c(C)c3c2N)cc1 [Example B91] | 53 | 97
Cc1nnc2sc(C(=O)NCc3ccc(F)nc3)c(N)c2c1C [Example B440] | 80 | 190
COc1ccc(C2(CNC(=O)c3sc4nnc(C)c(C)c4c3N)CC2)cc1 [Example B75] | 41 | 360
Cc1nnc2sc(C(=O)N3CCC(NC(=O)C4CCCCC4)C3)c(N)c2c1C (stereo not drawn) [Example B237] | 62 | 3400
CCS(=O)(=O)N1CC(NC(=O)c2sc3nnc(C)c(C)c3c2N)C1 [Example B142] | 77 | 290
[2H]C([2H])(NC(=O)c1sc2nnc(C)c(C)c2c1N)c1ccc(S(=O)(=O)C(F)F)cc1 [Example B477] | 74 | 23
Cc1nnc2sc(C(=O)NCc3ccc(C(C)(O)C(F)(F)F)cc3)c(N)c2c1C (single isomer, unassigned) [Example B186] | 75 | 19
Cc1nnc2sc(C(=O)N3CC4CN(C(=O)C5CC5)CC4C3)c(N)c2c1C (stereo not drawn) [Example B332] | 58 | 1600
Cc1nnc2sc(C(=O)NC3CN(C(=O)C4CCC4)C3)c(N)c2c1C [Example B122] | 88 | 180
Cc1nnc2sc(C(=O)NC3CCN(C(=O)OCc4ccccc4)C3)c(N)c2c1C (stereo not drawn) [Example B206] | 64 | 31
Cc1nnc2sc(C(=O)NC3COC3)c(N)c2c1C [Example B24] | 80 | 520
Cc1nnc2sc(C(=O)N[C@H]3CCN(S(C)(=O)=O)C3)c(N)c2c1C [Example B82] | 59 | 460

SMILES | Emax at 30 µM [%] | EC50 [nM]
Cc1nnc2sc(C(=O)NC3CN(C(=O)c4c(F)cccc4F)C3)c(N)c2c1C [Example B408] | 65 | 270
Cc1nnc2sc(C(=O)NCCNC(=O)OCc3ccccc3)c(N)c2c1C [Example B345] | 64 | 3600
Cc1nnc2sc(C(=O)N3CC4CN(c5cccc(Br)n5)CC4C3)c(N)c2c1C (stereo not drawn) [Example B437] | 54 | 98
COc1ccc2c(c1)CCN(C(=O)c1sc3nnc(C)c(C)c3c1N)C2 [Example B315] | 57 | 840
Cc1nnc2sc(C(=O)NCc3ccc(S(=O)(=O)C(F)F)c(F)c3)c(N)c2c1C [Example B468] | 85 | 16
Cc1nnc2sc(C(=O)NC3CCN(C(=O)C4CC4)C3)c(N)c2c1C (stereo not drawn) [Example B242] | 79 | 1300
Cc1nnc2sc(C(=O)NCc3ccc(-c4cccnc4F)cc3)c(N)c2c1C [Example B454] | 66 | 19
COc1cccc(S(=O)(=O)NC2CCN(C(=O)c3sc4nnc(C)c(C)c4c3N)C2)c1 (stereo not drawn) [Example B213] | 65 | 4500
CC(=O)NCCNC(=O)c1sc2nnc(C)c(C)c2c1N [Example B366] | 32 | > 10000
Cc1nnc2sc(C(=O)N3CC(F)(c4cccc(-c5cncnc5)c4)C3)c(N)c2c1C [Example B317] | 47 | 290
Cc1nnc2sc(C(=O)N3CC(F)(c4ccc(-c5cnn(C)c5)cc4)C3)c(N)c2c1C [Example B319] | 51 | 390
Nc1c(C(=O)NCc2ccc3c(c2)OCO3)sc2nnc3c(c12)CCCC3 [Example B50] | 49 | 61
Cc1nnc2sc(C(=O)NCc3ccc(Br)cn3)c(N)c2c1C [Example B471] | 60 | 390
Cc1nnc2sc(C(=O)NCc3ccc(CS(C)(=O)=O)cc3)c(N)c2c1C [Example B74] | 69 | 170
Cc1nnc2sc(C(=O)N3CC(NC(=O)c4ccncc4)C3)c(N)c2c1C [Example B184] | 48 | 1900
Cc1nnc2sc(C(=O)NC3CN(S(=O)(=O)c4cccc5c4OCCC5)C3)c(N)c2c1C [Example B143] | 90 | 120
Cc1nnc2sc(C(=O)N3CCC(NC(=O)CC4CCCCC4)C3)c(N)c2c1C (stereo not drawn) [Example B230] | 63 | 3400
Cc1nnc2sc(C(=O)N3CC(Sc4ccc(F)cc4F)C3)c(N)c2c1C [Example B419] | 56 | 220
COc1cccc(S(=O)(=O)C2CN(C(=O)c3sc4nnc(C)c(C)c4c3N)C2)c1 [Example B433] | 34 | 590
Cc1nnc2sc(C(=O)N3CC(F)(c4ccc(S(=O)(=O)CF)cc4)C3)c(N)c2c1C [Example B393] | 44 | 400
Cc1nnc2sc(C(=O)NC3CCN(S(=O)(=O)c4ccccc4)C3)c(N)c2c1C (stereo not drawn) [Example B229] | 68 | 550
Cc1nnc2sc(C(=O)NCc3ccc(C(F)F)cc3)c(N)c2c1C [Example B260] | 81 | 34
Cc1nnc2sc(C(=O)NC3CN(S(=O)(=O)c4cn(C)cn4)C3)c(N)c2c1C [Example B136] | 72 | 1000
Cc1nnc2sc(C(=O)NC(C)(C)C)c(N)c2c1C [Example B68] | 68 | 2600
COCCOc1ccc(CNC(=O)c2sc3nnc(C)c(C)c3c2N)cc1 [Example B233] | 78 | 99
